Reference: the OPERA property sets (Mansouri et al. 2018)

| Compound | boiling point [°C] | melting point [°C] | further results |
| --- | --- | --- | --- |
| Cc1cc(C)c2ccccc2n1 | 265 |  | log10 vapour pressure (mmHg): -2.1 |
| Cc1ccc(C[N+](=O)[O-])cc1 |  | 11.5 |  |
| CCCCCCCCCCCCCOC(=O)CCCCC(=O)OCCCCCCCCCCCCC |  |  | log10 biotransformation half-life (days) (fish): -0.43 |
| OCc1ccncc1 |  | 53 |  |
| CCC(=O)C1CCCCC1 | 196 |  |  |
| CCCCCCC(C)(C)C | 155 |  |  |
| C/C=C/C(C)CC (stereo not drawn) | 87.6 | -126 |  |
| Cc1cccc2c1cc(C)c1cccc(C)c12 |  |  | log10 biodegradation half-life (days): 1.92 |
| c1cncc(-c2cccnc2)c1 | 292 | 68 |  |
| O=C1C(Cl)=C(Cl)C(=O)N1c1ccc(F)cc1 |  | 241 |  |
| NCc1ccco1 | 146 |  |  |
| NCCCc1ccccc1 | 221 |  |  |
| Nc1cccc(S(=O)(=O)O)c1 |  |  | ready biodegradability: not readily biodegradable |
| Cc1ccnc2ccccc12 | 262 | 9.5 | log10 vapour pressure (mmHg): -2.2 |
| CC(O)CNCC(C)O (stereo not drawn) | 250 | 44.5 | log10 vapour pressure (mmHg): -3.9; ready biodegradability: readily biodegradable |
| CCCCCCCC1CCCCC1 | 244 | -30 | log10 vapour pressure (mmHg): -1.4; log10 biotransformation half-life (days) (fish): 0.17 |
| O=Cc1cc(Cl)cc(Cl)c1 | 240 | 65 |  |
| COC(=O)c1cc(Oc2ccc(C(F)(F)F)cc2Cl)ccc1[N+](=O)[O-] |  |  | log10 vapour pressure (mmHg): -7.12 |
| CC1C2Cc3ccc(O)cc3C1(C)CCN2CC1CC1 (stereo not drawn) |  | 202 |  |
| Cc1cc(Cl)cc2c1C(=O)/C(=C1/Sc3cc(Cl)cc(C)c3C1=O)S2 |  |  | log10 vapour pressure (mmHg): -13.5 |
| O=P(O)(O)CN(CP(=O)(O)O)CP(=O)(O)O | 480 |  | log10 vapour pressure (mmHg): -11.2 |
| CC(Br)C(Br)CBr (stereo not drawn) | 220 | -19 |  |
| CCCC1CCCC1 | 131 | -117 | log10 vapour pressure (mmHg): 1.09 |
| C=COc1ccccc1 | 156 |  |  |
| COCc1ccccc1 | 170 | -52.6 | log10 vapour pressure (mmHg): 0.22 |

| Compound | boiling point [°C] | melting point [°C] | further results |
| --- | --- | --- | --- |
| CC(C)(C(=O)O)C(C)(C)C(=O)O |  | 200 |  |
| CCOC(=O)C1(S(=O)(=O)c2ccc(C)cc2)CC1 |  | 75.5 |  |
| O=C(O)c1c2ccccc2cc2ccccc12 |  |  | log10 Koc (L/kg): 2.74 |
| O=C(OCCOCCOC(=O)c1ccccc1)c1ccccc1 |  | 33.5 |  |
| CCCC(C)C(C)(C)CC (stereo not drawn) | 162 |  |  |
| O=C(O)C1CCC1 | 190 | -2 |  |
| CCC1=CCCC1 | 106 | -118 |  |
| CN1CCN(C(=O)OC2C3=C(SCCS3)C(=O)N2c2ccc3ccc(Cl)nc3n2)CC1 (stereo not drawn) |  | 280 |  |
| CC(C)=CCC/C(C)=C/C=C/C(C)=C/C=C/C(C)=C/C=C/C=C(C)/C=C/C=C(C)/C=C/C=C(\C)CCC=C(C)C |  | 175 |  |
| Clc1ccc(C(c2ccccc2Cl)C(Cl)Cl)cc1 (stereo not drawn) |  | 77 | log10 vapour pressure (mmHg): -5.71; log10 biotransformation half-life (days) (fish): 1.65 |
| ON=C1CCCCC1=NO |  | 192 |  |
| O=C1c2ccccc2C(=O)c2c1cc(O)c(O)c2O |  | 313 |  |
| BrCCBr | 132 | 9.9 | log10 Henry constant (atm·m³/mol): -3.19; log10 Koc (L/kg): 1.71; log10 vapour pressure (mmHg): 1.05; ready biodegradability: not readily biodegradable; log10 BCF (fish): 1.18; log10 biotransformation half-life (days) (fish): -0.83 |
| O=C1C=C(N2CC2)C(=O)C(N2CC2)=C1N1CC1 |  | 163 |  |
| CCCC(CC)CC | 119 |  | log10 biodegradation half-life (days): 0.602; log10 vapour pressure (mmHg): 1.3 |
| N#Cc1ccccc1-c1ccccc1 |  | 41 |  |
| CC(=O)CC(=O)c1cccnc1 |  | 85 |  |
| CCCSC(=O)N(CCC)CCC |  |  | log10 Koc (L/kg): 2.33; log10 vapour pressure (mmHg): -1.98 |
| CCSc1ccc(C)cc1 | 220 |  |  |
| CCCCOCc1ccccc1 | 223 |  |  |
| CCC1NC(=O)c2cc(S(N)(=O)=O)c(Cl)cc2N1 (stereo not drawn) |  | 251 |  |
| C[C@H](O)C(F)(F)F | 75.5 |  | log10 Henry constant (atm·m³/mol): -4.66; log10 vapour pressure (mmHg): 1.78 |
| CN(C)C1=NC(=O)C(c2ccccc2)O1 (stereo not drawn) |  | 134 |  |
| O=S(=O)(O)c1ccc2cc(O)ccc2c1 |  | 125 |  |
